# Assay results from patent publication US8026359B2, “Fungicidal heterocyclic amines” (E.I. du Pont de Nemours and Company, priority 2007, dated 2011).
# Marks after values point to notes of the source that are not given here.
# How the values were obtained:
# Assay type in all cases: in vivo
# Botrytis cinerea = assay: Test F: tomato Botrytis, preventive spray on tomato seedlings; settings: for pest or weed control at 200 ppm: Botrytis cinerea, 120 h, read-out: Test F disease control rating
# From the text: (§1) General protocol for preparing test suspensions for Tests A-R: The test compounds were first dissolved in acetone in an amount equal to 3% of the final volume and then suspended at the desired concentration (in ppm) in acetone and purified water (50/50 mix) containing 250 ppm of the surfactant Trem® 014 (polyhydric alcohol esters). The resulting test suspensions were then used in tests A-R. In Tests A-M, compounds were sprayed as a 200 ppm test suspension (equivalent to a rate of 500 g/ha) or as a 40 ppm test suspension to the point of runoff on the test plants. In Tests N-R, compounds were sprayed as a 100 g/ha test suspension (equivalent to a rate of 100 ppm) on the test plants at an application volume of 1000 L/ha. The test suspension was sprayed to the point of run-off on tomato seedlings.
# Septoria nodorum = assay: Test C: wheat glume blotch, preventive spray on wheat seedlings; settings: 200 ppm, 100 = 100% disease control, 0 = no control relative to controls; for pest or weed control at 200 ppm: Parastagonospora nodorum, 216 h, read-out: Test C disease control rating
# From the text: as §1, with “wheat” for “tomato”
# [1] = test system: Puccinia recondita f. sp. tritici; assay: Test B: wheat leaf rust, preventive spray on wheat seedlings; settings: 200 ppm, 100 = 100% disease control, 0 = no control relative to controls; for pest or weed control at 200 ppm: Puccinia recondita, 192 h, read-out: Test B disease control rating
# From the text: as §1, with “wheat” for “tomato”
# Fusarium graminearum = assay: whole plant or invertebrate; settings: for pest or weed control at 200 ppm: Fusarium graminearum, in Triticum aestivum, 192 h, read-out: Test E disease control rating; for Test E disease control rating: 200 ppm, 100 = 100% disease control, 0 = no control relative to controls
# Septoria tritici = assay: Test D: wheat leaf blotch, preventive spray on wheat seedlings; settings: 200 ppm, 100 = 100% disease control, 0 = no control relative to controls; for pest or weed control at 200 ppm: Zymoseptoria tritici, 504 h, read-out: Test D disease control rating
# From the text: as §1, with “wheat” for “tomato”
# Alternaria solani = assay: Test H: tomato early blight, preventive spray on seedlings; settings: for pest or weed control at 200 ppm: Alternaria solani, 168 h, read-out: Test H disease control rating
# From the text: as §1, with “wheat” for “tomato”
# [2] = test system: Colletotrichum orbiculare; assay: Test I: cucumber Colletotrichum anthracnose, preventive spray on cucumber seedlings; settings: 100 = 100% disease control, 0 = no control relative to controls; for pest or weed control at 200 ppm: Colletotrichum orbiculare, 144 h, read-out: Test I disease control rating; for Test I disease control rating: 200 ppm
# From the text: as §1, with “cucumber” for “tomato”
# [3] = test system: Erysiphe graminis f. sp. tritici; assay: Test A: wheat powdery mildew, preventive spray on wheat seedlings; settings: 200 ppm; 100 = 100% disease control, 0 = no control relative to controls
# From the text: as §1, with “wheat” for “tomato”
# [4] = 200 ppm, 100 = 100% disease control, 0 = no control relative to controls
Structure (SMILES),pest or weed control at 200 ppm (Botrytis cinerea; [4]) [%],pest or weed control at 200 ppm (Septoria nodorum) [%],pest or weed control at 200 ppm [1] [%],pest or weed control at 200 ppm (Fusarium graminearum) [%],pest or weed control at 200 ppm (Septoria tritici) [%],pest or weed control at 200 ppm (Alternaria solani; [4]) [%],pest or weed control at 200 ppm [2] [%],Test F disease control rating (Botrytis cinerea; [4]) [%],Test C disease control rating (Septoria nodorum) [%],Test B disease control rating [1] [%],Test E disease control rating (Fusarium graminearum) [%],Test D disease control rating (Septoria tritici) [%],Test H disease control rating (Alternaria solani; [4]) [%],Test I disease control rating [2] [%],Test F disease control rating (Botrytis cinerea; 40 ppm (marked *)),Test H disease control rating (Alternaria solani; 40 ppm (marked *)),Test A disease control rating [3] [%]
"Cc1cccc(Cl)c1Nc1nccc(-c2ncnc(NC3CCOCC3)n2)n1 [Compound 104, 4-[2-[(2-chloro-6-methylphenyl)amino]-4-pyrimidinyl]-N-(tetrahydro-2H-pyran-4yl)-1,3,5-triazin-2-amine]",0,94,99,0,10,0,0,,,,,,,,,,
"CSCC(C)Nc1nccc(-c2ccnc(Nc3cccc(F)c3)c2)n1 (centres unmarked) [Compound 94, 4-[2-[(3-fluorophenyl)amino]-4-pyridinyl]-N-[1-methyl-2-(methylthio)ethyl]-2-pyrimidinamine]",72,95,89,0,69,0,0,,,,,,,,,,
"Clc1ccccc1Nc1cc(-c2ccnc(NC3CCOCC3)n2)ccn1 [Compound 101, 4-[2-[(2-chlorophenyl)amino]-4-pyridinyl]-N-(tetrahydro-2H-pyran-4-yl)-2-pyrimidinamine]",99,100,99,97,53,92,97,,,,,,,,,,
COC[C@H](C)Nc1nccc(-c2ncnc(Nc3cccc(I)c3)n2)n1 [Compound 12],,,,,,,,37,100,79,96,0,98,,,,
"COC(C)CNc1nccc(-c2ccnc(Nc3cccc(F)c3)c2)n1 (centres unmarked) [Compound 96, 4-[2-[(3-fluorophenyl)amino]-4-pyridinyl]-N-(2-methoxypropyl)-2-pyrimidinamine]",86,99,85,0,28,0,0,,,,,,,,,,
COC[C@H](C)Nc1nccc(-c2ncnc(Nc3ccc(Cl)cc3)n2)n1 [Compound 15],,,,,,,,0,92,32,0,0,90,93,,,
"COC[C@H](C)Nc1nccc(-c2ncnc(Nc3cccc(F)c3)n2)n1 [Compound 5, N-(3-fluorophenyl)-4-[2-[[(1S)-2-methoxy-1-methylethyl]amino]-4-pyrimidinyl]-1,3,5-triazin-2-amine]",80,100,100,98,98,0,99,,,,,,,,,,
COC[C@H](C)Nc1nccc(-c2ncnc(Nc3cc(Cl)cc(Cl)c3)n2)n1 [Compound 28],,,,,,,,,99,73,90,0,85,96,84* %,,
"COCC(C)Nc1cc(-c2ccnc(Nc3c(C)cccc3Cl)n2)ncn1 (centres unmarked) [Compound 110, N^2-(2-chloro-6-methylphenyl)-N^6′-(2-methoxy-1-methylethyl) [4,4′-bipyrimidine]-2,6′-diamine]",65,60,89,0,9,89,97,,,,,,,,,,
"CSCC(C)Nc1nccc(-c2ccnc(Nc3cccc(Cl)c3)c2)n1 (centres unmarked) [Compound 95, 4-[2-[(3-chlorophenyl)amino]-4-pyridinyl]-N-[1-methyl-2-(methylthio)ethyl]-2-pyrimidinamine]",0,94,88,0,77,0,0,,,,,,,,,,
COC[C@H](C)Nc1nccc(-c2ncnc(Nc3ccccc3F)n2)n1 [Compound 17],,,,,,,,97,99,86,0,66,90,98,,,
COC[C@H](C)Nc1nccc(-c2ncnc(Nc3ccc(C)cc3)n2)n1 [Compound 20],,,,,,,,99,100,74,91,20,96,0,,,
COC[C@H](C)Nc1nccc(-c2ncnc(Nc3ccc(C)c(C)c3)n2)n1 [Compound 24],,,,,,,,70,100,97,99,24,100,,,,
COC[C@H](C)Nc1nccc(-c2ncnc(Nc3ccc(F)c(F)c3)n2)n1 [Compound 29],,,,,,,,91,100,100,99,90,,,,97* %,
COC[C@H](C)Nc1nccc(-c2ncnc(Nc3ccc(Cl)c(Cl)c3)n2)n1 [Compound 14],,,,,,,,55,100,79,92,0,95,,,,
COC[C@H](C)Nc1nccc(-c2ncnc(Nc3ccc(F)cc3)n2)n1 [Compound 13],,,,,,,,87,100,100,96,26,,,,98* %,
COCC(C)Nc1nccc(-c2ccnc(Nc3c(C)cc(C)cc3Cl)c2)n1 (centres unmarked) [Compound 87],,,,,,,,96,100,95,0,49,,88,,,87
COCCNc1nccc(-c2ccnc(Nc3cccc(F)c3)c2)n1 [Compound 58],,,,,,,,86,99,98,0,36,,24,,,44
COCC(C)Nc1nccc(-c2ccnc(Nc3c(Cl)cccc3Cl)c2)n1 (centres unmarked) [Compound 78],,,,,,,,93,99,99,0,60,,98,,,39
